The target of one assay is T1, yeast HSP90 (Saccharomyces cerevisiae, UniProt P02829).
T1 construct: made in house; host or cells: E. coli
Kind of assay: Malachite green HSP90 ATPase assay. In kind it is biochemical. To be noted: 1 mM ATP, ±SD if n=3–5. The gist of the method: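 E. coli-expressed yeast HSP90 ATPase activity measured as released inorganic phosphate by malachite green–molybdate colour (610 nm), with sodium citrate added to suppress non-enzymatic ATP hydrolysis. Assay buffer 100 mM Tris-HCl pH 7.4, 20 mM KCl, 6 mM MgCl2; compounds screened at 40 μM final.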

The subject of assay [1] is HT29 human colon tumour cells. Kind of assay: 96 h growth inhibition assay (SRB), HT29. It is filed as cell-based. To be noted: Homo sapiens, HT-29; HT29, 96 h. Here is the method: The growth inhibition assay employed was based on that described previously (Kelland et al., 1993). HCT116 and HT29 human colon tumour cells (American Tissue Culture Collection) were seeded into 96-well tissue culture plates (approximately 1600–2000 cells per well) and allowed to attach for 36 hours. Eight wells were treated with a single concentration from a range of compound concentrations and incubated for 96 hours. Cells were fixed using ice cold 10% trichloroacetic acid (TCA). Plates were then washed five times with water, air dried, and stained with 0.4% sulphorhodamine B (SRB) in 1% acetic acid for 10 minutes. The SRB stain was solubilised in 10 mM Tris-HCl and the absorbance measured at 540 nm using a Titertek Multiscan MCC/340 MKII plate reader (Flow Laboratories, IEC, Basingstoke, N.H.). The absorbance values correspond to total protein content and are used as a measure of cell growth.

Each structure is given as a SMILES string. Like-named read-outs stand apart in the source and are kept apart here.

T1 sequence (P02829 whole entry, looked up): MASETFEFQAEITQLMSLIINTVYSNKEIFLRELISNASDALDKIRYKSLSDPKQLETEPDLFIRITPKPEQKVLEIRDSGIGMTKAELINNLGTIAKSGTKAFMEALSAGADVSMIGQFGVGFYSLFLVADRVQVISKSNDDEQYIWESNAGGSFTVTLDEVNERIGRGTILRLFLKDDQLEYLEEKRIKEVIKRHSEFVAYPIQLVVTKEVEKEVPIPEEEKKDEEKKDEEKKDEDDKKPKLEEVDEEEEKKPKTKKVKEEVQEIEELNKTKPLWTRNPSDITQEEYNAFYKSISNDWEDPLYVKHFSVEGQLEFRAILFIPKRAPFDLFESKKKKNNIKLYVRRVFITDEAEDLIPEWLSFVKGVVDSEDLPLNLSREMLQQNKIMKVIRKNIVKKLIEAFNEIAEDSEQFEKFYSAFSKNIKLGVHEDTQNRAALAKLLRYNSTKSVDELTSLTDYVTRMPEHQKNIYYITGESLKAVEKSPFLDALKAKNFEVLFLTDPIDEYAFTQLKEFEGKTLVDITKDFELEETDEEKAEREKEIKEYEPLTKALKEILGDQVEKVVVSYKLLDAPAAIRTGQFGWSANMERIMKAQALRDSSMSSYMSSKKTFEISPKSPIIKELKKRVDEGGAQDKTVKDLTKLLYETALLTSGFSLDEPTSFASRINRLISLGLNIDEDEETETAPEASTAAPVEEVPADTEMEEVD

The IC50 is the concentration needed to halve the response being measured. Take `CCc1cc(-c2n[nH]c(C)c2-c2ccc3c(c2)OCCO3)c(O)cc1O` [CCT018159, 4-[4-(2,3-Dihydro-benzo[1,4]dioxin-6-yl)-5-methyl-1H-pyrazol-3-yl]-6-ethyl-benzene-1,3-diol]: the IC50 was determined as 9.2 ± 0.65 µM on yeast HSP90 (HSP90 ATPase inhibition IC50, malachite green assay) and 13.5 µM in assay [1].
`Cc1[nH]nc(-c2ccc(O)cc2O)c1-c1ccc2c(c1)OCCO2` [CCT018157]: the IC50 came out at 60.5 ± 8 µM on yeast HSP90 (malachite green assay, read-out: HSP90 ATPase inhibition IC50) and 14 µM in assay [1].
